Data as given in patent US20190105367A1, “ANTIMICROBIAL 4-OXOQUINOLIZINES” (Emergent Product Development Gaithersburg Inc., priority 2011, published 2019).
Values after ≈ are worked out from the molar mass of the structure shown. Like-named read-outs stand apart in the source and are kept apart here.

Experiments:
A. baumannii NCTC 13301 [1] = test: Preliminary MBC without and with sub-inhibitory polymyxin B (Example 4); assay type: cell-based, Acinetobacter baumannii; conditions: Acinetobacter baumannii
Procedure, shortened: (§1)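 After plating, cultures are held at 37° C for 18-20 hours; the endpoint is then scored by comparing colony growth against the positive control, with MBC defined as the lowest concentration showing roughly 90% reduction.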

A. baumannii A390 [2] = test: as above; assay type: cell-based, Acinetobacter baumannii; conditions: Acinetobacter baumannii, A390, A. baumannii A390, +0.06 μg/ml PB, 2nd experiment, read-out: MBC
Procedure, shortened: as §1

A. baumannii A14 [3] = test: as above; assay type: cell-based, Acinetobacter baumannii; conditions: A. baumannii A14, +0.06 μg/ml PB, 2nd experiment
Procedure, shortened: as §1

A. baumannii A473 [4] = test: as above; assay type: cell-based, Acinetobacter baumannii; conditions: Acinetobacter baumannii, A473, A. baumannii A473, +0.06 μg/ml PB, 2nd experiment, read-out: MBC
Procedure, shortened: as §1

A. baumannii A473 [5] = test: MIC without and with sub-inhibitory polymyxin B (Example 4); assay type: cell-based, Acinetobacter baumannii; conditions: Acinetobacter baumannii, A473, A. baumannii A473; +0.06 μg/ml PB; 2nd experiment; read-out: MIC
A. baumannii A472 [6] = test: as above; assay type: cell-based, Acinetobacter baumannii; conditions: Acinetobacter baumannii
A. baumannii J2 [7] = test: as above; assay type: cell-based, Acinetobacter baumannii; conditions: Acinetobacter baumannii, J2, A. baumannii J2; +[…] PB; 2nd experiment; read-out: MIC
A. baumannii A401 [8] = test: as above; assay type: cell-based, Acinetobacter baumannii; conditions: Acinetobacter baumannii
A. baumannii A401 [9] = test: Preliminary MBC without and with sub-inhibitory polymyxin B (Example 4); assay type: cell-based, Acinetobacter baumannii; conditions: Acinetobacter baumannii
[10] = test system: Acinetobacter sp. (H064200250); test: as above; assay type: cell-based; conditions: Acinetobacter, preliminary MBC
Procedure, shortened: as §1

A. baumannii A390 [11] = test: MIC without and with sub-inhibitory polymyxin B (Example 4); assay type: cell-based, Acinetobacter baumannii; conditions: Acinetobacter baumannii, A390, A. baumannii A390; +0.06 μg/ml PB; 2nd experiment; read-out: MIC
A. baumannii A387 [12] = test: as above; assay type: cell-based, Acinetobacter baumannii; conditions: Acinetobacter baumannii, A387, read-out: MIC +0.06 μg/ml PB, A. baumannii A387; +0.06 μg/ml polymyxin B; 1st experiment
A. baumannii A472 [13] = test: Preliminary MBC without and with sub-inhibitory polymyxin B (Example 4); assay type: cell-based, Acinetobacter baumannii; conditions: Acinetobacter baumannii, preliminary MBC
A. baumannii A489 = test: MIC without and with sub-inhibitory polymyxin B (Example 4); assay type: cell-based, Acinetobacter baumannii; conditions: Acinetobacter baumannii
[14] = test system: strains of A. baumannii and one strain of Acinetobacter sp.; test: MIC with sub-inhibitory concentrations (0.25x MIC) of polymyxin B, panel of Acinetobacter strains (Example 4); assay type: cell-based
A. baumannii ATCC 19606 = test: Preliminary MBC without and with sub-inhibitory polymyxin B (Example 4); assay type: cell-based, Acinetobacter baumannii; conditions: Acinetobacter baumannii
A. baumannii A387 [15] = test: as above; assay type: cell-based, Acinetobacter baumannii; conditions: Acinetobacter baumannii
A. baumannii A329 = test: as above; assay type: cell-based, Acinetobacter baumannii; conditions: Acinetobacter baumannii, A329, A. baumannii A329, +0.06 μg/ml PB, 2nd experiment, read-out: MBC
A. baumannii J2 [16] = test: as above; assay type: cell-based, Acinetobacter baumannii; conditions: Acinetobacter baumannii, preliminary MBC
A. baumannii A14 [17] = test: MIC without and with sub-inhibitory polymyxin B (Example 4); assay type: cell-based, Acinetobacter baumannii; conditions: +0.06 μg/ml polymyxin B, 1st experiment
[18] = test system: Acinetobacter sp. (H064200250); test: as above; assay type: cell-based; conditions: Acinetobacter
A. baumannii NCTC 13301 [19] = test: as above; assay type: cell-based, Acinetobacter baumannii; conditions: Acinetobacter baumannii, NCTC13301, A. baumannii NCTC 13301; +[…] PB; 2nd experiment; read-out: MIC
A. baumannii NCTC 13301 [20] = test: as above; assay type: cell-based, Acinetobacter baumannii; conditions: Acinetobacter baumannii, NCTC13301, read-out: MIC +[…] PB

## C[C@@H](O)[C@H]1C(=O)N2C(C(=O)O)=C(S[C@@H]3CN[C@H](C(=O)N(C)C)C3)[C@H](C)[C@H]12 [Meropenem]
A. baumannii NCTC 13301 [1]; NCTC13301, A. baumannii NCTC 13301, +[…] PB, preliminary MBC, 2nd experiment, read-out: MBC
  MBC: ≤ 0.125 µg/mL
A. baumannii NCTC 13301 [1]; NCTC13301, read-out: MBC +[…] PB
  MBC: 1 µg/mL (≈ 2.61 µM)
A. baumannii A390 [2]
  MBC: 2 µg/mL (≈ 5.22 µM)
A. baumannii A14 [3]
  MBC: 1 µg/mL (≈ 2.61 µM)
A. baumannii A473 [4]
  MBC: 2 µg/mL (≈ 5.22 µM)
A. baumannii A473 [5]
  MIC: 2 µg/mL (≈ 5.22 µM)
A. baumannii A472 [6]; A472, A. baumannii A472, +[…] PB, 2nd experiment, read-out: MIC
  MIC: ≤ 0.125 µg/mL
A. baumannii A472 [6]; A472, read-out: MIC +[…] PB, A. baumannii A472, +[…] polymyxin B, 1st experiment
  MIC: ≤ 0.125 µg/mL
A. baumannii J2 [7]
  MIC: ≤ 0.125 µg/mL
A. baumannii A401 [8]; A401, A baumannii A 401, +0.06 μg/ml PB, 2nd experiment, read-out: MIC
  MIC: 4 µg/mL (≈ 10.4 µM)
A. baumannii A401 [8]; A401, read-out: MIC +0.06 μg/ml PB, A baumannii A 401, +0.06 μg/ml polymyxin B, 1st experiment
  MIC: 4 µg/mL
A. baumannii A401 [9]; A401, A baumannii A 401, +0.06 μg/ml PB, 2nd experiment, read-out: MBC
  MBC: 4 µg/mL (≈ 10.4 µM)
A. baumannii A401 [9]; A401, read-out: MBC +0.06 μg/ml PB, A baumannii A 401, +0.06 μg/ml polymyxin B, 1st experiment
  MBC: 4 µg/mL
[10]; Acinetobacter spp. H064200250 (OXA51), +[…] PB, 2nd experiment, read-out: MBC
  MBC: 0.25 µg/mL (≈ 0.652 µM)
[10]; read-out: MBC +[…] PB, Acinetobacter spp. H064200250, +[…] polymyxin B, 1st experiment
  MBC: 1 µg/mL (≈ 2.61 µM)
A. baumannii A390 [11]
  MIC: 2 µg/mL (≈ 5.22 µM)
A. baumannii A387 [12]
  MIC: 1 µg/mL
A. baumannii A472 [13]; A472, A. baumannii A472, +[…] PB, 2nd experiment, read-out: MBC
  MBC: ≤ 0.125 µg/mL
A. baumannii A472 [13]; A472, read-out: MBC +[…] PB, A. baumannii A472, +[…] polymyxin B, 1st experiment
  MBC: ≤ 0.125 µg/mL
A. baumannii A489; A489, A. baumannii A489, +[…] PB, 2nd experiment, read-out: MIC
  MIC: ≤ 0.125 µg/mL
A. baumannii A489; A489, read-out: MIC +[…] PB, A. baumannii A489, +[…] polymyxin B, 1st experiment
  MIC: 0.5 µg/mL (≈ 1.3 µM)
[14]; 1st experiment, […] polymyxin B, ATCC 19606, A329, A390 and A473 not taken
  MIC range with PB (0.25x MIC) Oct. 1, 2008 n = 8: <0.125 to 4 µg/mL
[14]; 2nd experiment, 0.06 μg/ml polymyxin B, all strains except the ATCC strain
  MIC range with PB (0.25x MIC) Oct. 14, 2008 n = 11: ≤0.125 to 32 µg/mL
A. baumannii ATCC 19606; ATCC19606, A. baumannii ATCC 19606, +0.06 μg/ml PB, 2nd experiment, read-out: MBC
  MBC: 2 µg/mL (≈ 5.22 µM)
A. baumannii ATCC 19606; ATCC19606, read-out: MBC +0.06 μg/ml PB, A. baumannii ATCC 19606, +0.06 μg/ml polymyxin B, 1st experiment
  MBC: 2 µg/mL
A. baumannii A387 [15]; A387, A. baumannii A387, +0.06 μg/ml PB, 2nd experiment, read-out: MBC
  MBC: 2 µg/mL (≈ 5.22 µM)
A. baumannii A387 [15]; A387, read-out: MBC +0.06 μg/ml PB, A. baumannii A387, +0.06 μg/ml polymyxin B, 1st experiment
  MBC: 1 µg/mL
A. baumannii A329
  MBC: 32 µg/mL (≈ 83.4 µM)
A. baumannii J2 [16]; J2, A. baumannii J2, +[…] PB, 2nd experiment, read-out: MBC
  MBC: ≤ 0.125 µg/mL
A. baumannii J2 [16]; J2, read-out: MBC +[…] PB, A. baumannii J2, +[…] polymyxin B, 1st experiment
  MBC: 1 µg/mL (≈ 2.61 µM)
A. baumannii A14 [17]
  MIC +0.06 μg/ml PB: 0.5 µg/mL
[18]; Acinetobacter spp. H064200250 (OXA51), +[…] PB, 2nd experiment, read-out: MIC
  MIC: 0.25 µg/mL (≈ 0.652 µM)
[18]; read-out: MIC +[…] PB, Acinetobacter spp. H064200250, +[…] polymyxin B, 1st experiment
  MIC: 1 µg/mL (≈ 2.61 µM)
A. baumannii NCTC 13301 [19]
  MIC: 0.25 µg/mL (≈ 0.652 µM)
A. baumannii NCTC 13301 [20]
  MIC: 1 µg/mL (≈ 2.61 µM)
